Source: US7247734B2 (Vernalis (Cambridge) Limited, priority 2001, dated 2007)
Where two headings read alike, the source gives them in different places.

Molecular target: T1, yeast HSP90 (Saccharomyces cerevisiae, UniProt P02829)
T1 construct: made in house; host or cells: E. coli
Test: Malachite green HSP90 ATPase assay
Type: biochemical
Settings: 1 mM ATP, ±SD if n=3–5
Summary of the method: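 E. coli-expressed yeast HSP90 ATPase activity measured as released inorganic phosphate by malachite green–molybdate colour (610 nm), with sodium citrate added to suppress non-enzymatic ATP hydrolysis. Assay buffer 100 mM Tris-HCl pH 7.4, 20 mM KCl, 6 mM MgCl2; compounds screened at 40 μM final.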

T1 sequence (P02829 whole entry, looked up): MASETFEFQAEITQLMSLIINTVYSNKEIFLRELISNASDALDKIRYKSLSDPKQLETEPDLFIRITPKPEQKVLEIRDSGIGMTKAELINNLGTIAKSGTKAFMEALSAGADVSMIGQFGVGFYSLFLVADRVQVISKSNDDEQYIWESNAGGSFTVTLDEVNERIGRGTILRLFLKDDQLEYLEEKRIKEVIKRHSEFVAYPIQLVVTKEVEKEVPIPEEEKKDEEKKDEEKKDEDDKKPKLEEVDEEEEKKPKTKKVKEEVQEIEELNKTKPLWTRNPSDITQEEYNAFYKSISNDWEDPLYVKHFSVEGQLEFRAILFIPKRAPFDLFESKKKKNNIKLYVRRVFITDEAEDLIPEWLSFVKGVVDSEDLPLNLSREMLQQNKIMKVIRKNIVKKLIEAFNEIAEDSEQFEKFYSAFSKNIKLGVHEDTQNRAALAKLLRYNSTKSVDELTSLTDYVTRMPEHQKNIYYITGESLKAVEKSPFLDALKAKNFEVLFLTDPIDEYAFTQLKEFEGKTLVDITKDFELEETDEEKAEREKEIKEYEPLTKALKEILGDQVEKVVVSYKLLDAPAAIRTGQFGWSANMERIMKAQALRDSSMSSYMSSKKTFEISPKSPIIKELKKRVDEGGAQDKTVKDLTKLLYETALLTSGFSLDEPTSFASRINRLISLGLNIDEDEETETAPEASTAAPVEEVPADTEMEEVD

SMILES | IC50 (malachite green assay, read-out: HSP90 ATPase inhibition IC50) | IC50 (HSP90 ATPase inhibition IC50, malachite green assay)
Cc1[nH]nc(-c2ccc(O)cc2O)c1-c1ccc2c(c1)OCCO2 [CCT018157] | 60.5 ± 8 µM | 
CCc1cc(-c2n[nH]c(C)c2-c2ccc3c(c2)OCCO3)c(O)cc1O [CCT018159, 4-[4-(2,3-Dihydro-benzo[1,4]dioxin-6-yl)-5-methyl-1H-pyrazol-3-yl]-6-ethyl-benzene-1,3-diol] |  | 9.2 ± 0.65 µM
